Laboratory results: ChEMBL document CHEMBL3102705, “Design, synthesis and investigation on the structure-activity relationships of N-substituted 2-aminothiazole derivatives as antitubercular agents” (Eur J Med Chem, 2014)
Converted amounts (≈) assume the structure as drawn.

How the values were obtained:
Type in all cases: functional
[1] = test system: Mycobacterium tuberculosis; assay: Antitubercular activity against capreomycin-resistant Mycobacterium tuberculosis H37Rv ATCC 27294 assessed as growth inhibition after 16 to 24 hrs by microplate-Alamar Blue assay
[2] = test system: Mycobacterium tuberculosis; assay: Antitubercular activity against moxifloxacin-resistant Mycobacterium tuberculosis H37Rv ATCC 27294 assessed as growth inhibition after 16 to 24 hrs by microplate-Alamar Blue assay
[3] = test system: Mycobacterium tuberculosis; assay: Antitubercular activity against isoniazid-resistant Mycobacterium tuberculosis H37Rv ATCC 27294 assessed as growth inhibition after 16 to 24 hrs by microplate-Alamar Blue assay
[4] = test system: Mycobacterium tuberculosis; assay: Antitubercular activity against rifampin-resistant Mycobacterium tuberculosis H37Rv ATCC 27294 assessed as growth inhibition after 16 to 24 hrs by microplate-Alamar Blue assay

| SMILES | MIC [1] | MIC [2] | MIC [3] | MIC [4] |
| --- | --- | --- | --- | --- |
| NNC(=O)c1ccncc1 [ISONIAZID] | 0.81 µM (≈ 0.111 µg/mL) | 3.6 µM (≈ 0.494 µg/mL) | > 8 µM | 0.85 µM (≈ 0.117 µg/mL) |
| O=[N+]([O-])c1cn2c(n1)OC[C@@H](OCc1ccc(OC(F)(F)F)cc1)C2 [PRETOMANID] | 1.26 µM (≈ 0.453 µg/mL) | 0.88 µM (≈ 0.316 µg/mL) | 0.43 µM (≈ 0.154 µg/mL) | 0.51 µM (≈ 0.183 µg/mL) |
| CO[C@H]1/C=C/O[C@@]2(C)Oc3c(C)c(O)c4c(O)c(c(/C=N/N5CCN(C)CC5)c(O)c4c3C2=O)NC(=O)/C(C)=C\C=C\[C@H](C)[C@H](O)[C@@H](C)[C@@H](O)[C@@H](C)[C@H](OC(C)=O)[C@@H]1C [RIFAMPIN] | 0.05 µM (≈ 0.0411 µg/mL) | 0.14 µM (≈ 0.115 µg/mL) | 0.06 µM (≈ 0.0494 µg/mL) | > 4 µM |
| Fc1ccc(C(F)(F)F)cc1-c1csc(Nc2cc(Cl)cc(Cl)c2)n1 | 12 µM (≈ 4.89 µg/mL) | 12 µM (≈ 4.89 µg/mL) | 7.1 µM (≈ 2.89 µg/mL) | 9.7 µM (≈ 3.95 µg/mL) |
| Fc1ccc(C(F)(F)F)cc1-c1csc(Nc2ccc(Cl)cc2)n1 | 17.4 µM (≈ 6.49 µg/mL) | 15.5 µM (≈ 5.78 µg/mL) | 10.4 µM (≈ 3.88 µg/mL) | 10.9 µM (≈ 4.06 µg/mL) |
